Measured values published in US12202816B2 (CALLIDITAS THERAPEUTICS SUISSE SA, priority 2018, dated 2025).
pKi: −log10 of the molar value.

Target: hNOX enzymes
Experiment: ROS production measurement on hNOX membranes (Amplex Red fluorescence assay, assay 1)
Type: biochemical, human
Conditions: membranes from CHO or HEK cells overexpressing hNox enzymes; Nox isoform not stated; non linear regression; read-out: Nox inhibitory constant Ki
Description: Reactive oxygen species (ROS) production generated by hNOX enzymes was measured by fluorescence in both cellular and membrane-based assays using the Amplex® Red reagent. In the presence of horseradish peroxidase (HRP), the Amplex® Red reagent (10-acetyl-3,7-dihydroxyphenoxazine, AR), which is a colorless and nonfluorescent derivative of dihydroresorufin, reacts with H2O2 with a 1:1 stoichiometry to produce highly fluorescent resorufin at an excitation and emission wavelengths of 544 nm and 590 nm, respectively.
Membranes from CHO or HEK cells overexpressing hNox enzymes were prepared as previously described (Palicz et al., 2001, J. Biol. Chem, 76, 3090). After resuspension in sonication buffer (11% sucrose, 120 mM NaCl, 1 mM EGTA in PBS, pH 7.4), cells were broken by sonication and centrifuged (200 g, 10 min). The supernatant was layered onto a 17/40% (w/v) discontinuous sucrose gradient and centrifuged (150,000 g for 30 min). Membrane fractions were collected from the 17/40% interface, aliquoted in 10 μl samples and were stored at −80° C. Protein concentration was determined with Bradford reagent. Flavin Adenine Dinucleotide (FAD) (catalog #F6625-500MG), MgCl2 (catalog #M8266-100G), Phosphatidic Acid (PA) (catalog #P3591-50MG) were purchased from Sigma-Aldrich. Horseradish peroxidase (HRP) (catalog #10108090001) was purchased from Roche. NADPH (catalog #A1395, 0500) was purchased from Applichem. Amplex red (AR) (catalog #A22177) was purchased from Invitrogen. 96 well polypropylene and black plates were purchased from Milian (catalog #055529 and #055218, respectively). FLUOstar OPTIMA microplate reader was supplied by BMG Labtech (Germany). Zephyr® Compact Liquid Handling Workstation was supplied by PerkinElmer (Germany).
Assay 1: ROS Production Measurement on hNOX Membranes
All Solutions were placed on ice and protected from light. The final concentration in the 1× hNOX membrane fluorescent assay buffer were PBS pH7, 6 μM FAD, 15 μM PA, 1 mM MgCl2, 12.5 μM AR, 0.02 u/ml, 125 ng membranes, 1.5 μg of cofactors and 30 μM NADPH. The NADPH was dissolved in water at a concentration of 12 mM and was transferred in a metal transfer plate kept at 4° C. The NADPH was added to the assay plate to initiate the reaction just before the measurement.
Serial dilution (1:3, 10 serial dilution) of the compounds was performed in 100% DMSO in 96 well polypropylene plate—Row B—H Column 1-10, Row A, Column 1-10 contained reference compound. Starting concentration was 10^−2 M (10 mM). Final concentration in assay was 10^−4 M (100 μM). Compounds were diluted twice in PBS buffer by transferring 30 μl/well of PBS into 30 μl/well compounds sample in DMSO using Zephyr® Compact Liquid Handling Workstation. Control wells-columns 1 and 12-contained 60 μl DMSO in 50% PBS pH7.
Reaction mixture is dispensed using Zephyr® Compact Liquid Handling Workstation. 90 μl of mix with membrane were dispensed into 96 well black plates—Column 2-11, Column 1 Row A-D, Column 12 Row E-H. 90 μl of control mix were dispensed into assay plate—Column 1 Row E-H, Column 12 Row A-D, which are wells for measuring background signal. 2 μl of compounds were dispensed into each well of assay plate using Zephyr® Compact Liquid Handling Workstation. The reaction mixture with compounds was incubated in assay plates for 20 min at 37° C. in a Titramax microplate incubator with gentle agitation. 10 μl of NADPH is dispensed to the assay plate. Fluorescence reading was recorded with the FLUOstar OPTIMA microplate reader for 10 min at 37° C. (8 cycles, 1 cycle duration 55 sec).
The Table 14 below summarizes the inhibition of NOX activity as measured by the above described assay 1 and expressed by their inhibitory constant calculated by non linear regression analysis using GraphPad Prism Software (GraphPad Software Co., San Diego, CA): […]

- pKi: 6.65
Structure (SMILES): COc1cncc(-c2ccc3c(cc(-c4cnc5c(c4)OCCN5C)n3C)c2Cl)c1 [Example 119]
